# Several values for one entry are separate records, joined by “and”; a condition that tells them apart may be missing. Equal values may be shown once. Inconclusive results and toxic doses are left out.
# Test system: BDF1 mice, L1210 leukemia sc, survival T/C
# Test: NCI In Vivo Anticancer Drug Screen. Data for tumor model L1210 Leukemia (subcutaneous) in B6D2F1 (BDF1) mice
# Details: higher = longer survival
# Outline: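 Expressed as T/C: measurement in compound-treated, tumor-bearing mice relative to vehicle-treated control mice, based on survival or tumor size.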
# [1] = endpoint: median survival time, dose: 8.4 mg/kg/injection, schedule: Q01DX Z (sc), vehicle: methylcellulose (MC)
# [2] = endpoint: median survival time, dose: 14.0 mg/kg/injection, schedule: Q01DX Z (sc), vehicle: methylcellulose (MC)
# [3] = endpoint: median survival time, dose: 23.0 mg/kg/injection, schedule: Q01DX Z (sc), vehicle: methylcellulose (MC)
# [4] = endpoint: median survival time, dose: 65.0 mg/kg/injection, schedule: Q01DX Z (sc), vehicle: methylcellulose (MC)
# [5] = endpoint: median survival time, dose: 108.0 mg/kg/injection, schedule: Q01DX Z (sc), vehicle: methylcellulose (MC)
# [6] = endpoint: median survival time, dose: 180.0 mg/kg/injection, schedule: Q01DX Z (sc), vehicle: methylcellulose (MC)
# [7] = endpoint: median survival time, dose: 300.0 mg/kg/injection, schedule: Q01DX Z (sc), vehicle: methylcellulose (MC)
# [8] = endpoint: median survival time, dose: 78.0 mg/kg/injection, schedule: Q01DX Z (sc), vehicle: methylcellulose (MC)
# [9] = endpoint: median survival time, dose: 130.0 mg/kg/injection, schedule: Q01DX Z (sc), vehicle: methylcellulose (MC)
structure (smiles),measurement,setting,value
CS(=O)(=O)OCC(O)C(O)C(O)C(O)COS(C)(=O)=O (stereo not drawn),T/C,[1],103 % of control
same,T/C,[2],100 % of control
same,T/C,[3],96 % of control
same,T/C,"endpoint: median survival time, dose: 39.0 mg/kg/injection, schedule: Q01DX Z (sc), vehicle: methylcellulose (MC)",100 % of control
same,T/C,[4],100 % of control
same,T/C,[5],100 % of control
same,T/C,[6],103 % of control
same,T/C,[7],107 % of control
same,T/C,"endpoint: median survival time, dose: 500.0 mg/kg/injection, schedule: Q01DX Z (sc), vehicle: methylcellulose (MC)",103 % of control
CCNC(=O)c1cccnc1,T/C,"endpoint: median survival time, dose: 8.4 mg/kg/injection, schedule: Q01DX Z (sc), vehicle: water",100 % of control
same,T/C,"endpoint: median survival time, dose: 77.8 mg/kg/injection, schedule: Q01DX Z (sc), vehicle: water",100 % of control
same,T/C,"endpoint: median survival time, dose: 130.0 mg/kg/injection, schedule: Q01DX Z (sc), vehicle: water",95 % of control
same,T/C,"endpoint: median survival time, dose: 216.0 mg/kg/injection, schedule: Q01DX Z (sc), vehicle: water",100 % of control
same,T/C,"endpoint: median survival time, dose: 360.0 mg/kg/injection, schedule: Q01DX Z (sc), vehicle: water",100 % of control
same,T/C,"endpoint: median survival time, dose: 600.0 mg/kg/injection, schedule: Q01DX Z (sc), vehicle: water",100 % of control
same,T/C,"endpoint: median survival time, dose: 1000.0 mg/kg/injection, schedule: Q01DX Z (sc), vehicle: water",109 % of control
CC(=O)OCC1OC(n2ccc(N)nc2=O)C(OC(C)=O)C1OC(C)=O (stereo not drawn),T/C,"endpoint: median survival time, dose: 20.0 mg/kg/injection, schedule: Q01DX Z (oral), vehicle: carboxymethylcellulose (CMC)",220 % of control
same,T/C,"endpoint: median survival time, dose: 20.0 mg/kg/injection, schedule: Q01DX Z (sc), vehicle: carboxymethylcellulose (CMC)",290 % of control
same,T/C,"endpoint: median survival time, dose: 40.0 mg/kg/injection, schedule: Q01DX Z (oral), vehicle: carboxymethylcellulose (CMC)",255 % of control
same,T/C,"endpoint: median survival time, dose: 40.0 mg/kg/injection, schedule: Q01DX Z (sc), vehicle: carboxymethylcellulose (CMC)",360 % of control
same,T/C,"endpoint: median survival time, dose: 80.0 mg/kg/injection, schedule: Q01DX Z (oral), vehicle: carboxymethylcellulose (CMC)",270 % of control
same,T/C,"endpoint: median survival time, dose: 80.0 mg/kg/injection, schedule: Q01DX Z (sc), vehicle: carboxymethylcellulose (CMC)",360 % of control
same,T/C,"endpoint: median survival time, dose: 160.0 mg/kg/injection, schedule: Q01DX Z (oral), vehicle: carboxymethylcellulose (CMC)",260 % of control
same,T/C,"endpoint: median survival time, dose: 160.0 mg/kg/injection, schedule: Q01DX Z (sc), vehicle: carboxymethylcellulose (CMC)",225 % of control
same,T/C,"endpoint: median survival time, dose: 320.0 mg/kg/injection, schedule: Q01DX Z (oral), vehicle: carboxymethylcellulose (CMC)",320 % of control
CS(=O)(=O)OCCCCOS(C)(=O)=O,T/C,"endpoint: median survival time, dose: 6.25 mg/kg/injection, schedule: Q01DX009 (ip), vehicle: Klucel (hydroxypropylcellulose) (HPC)",93 % of control
same,T/C,"endpoint: median survival time, dose: 6.25 mg/kg/injection, schedule: Q01DX009 (sc), vehicle: Klucel (hydroxypropylcellulose) (HPC)",97 % of control
same,T/C,"endpoint: median survival time, dose: 12.5 mg/kg/injection, schedule: Q01DX009 (ip), vehicle: Klucel (hydroxypropylcellulose) (HPC)",103 % of control
same,T/C,"endpoint: median survival time, dose: 12.5 mg/kg/injection, schedule: Q01DX009 (sc), vehicle: Klucel (hydroxypropylcellulose) (HPC)",96 % of control
same,T/C,[3],103 % of control
same,T/C,"endpoint: median survival time, dose: 25.0 mg/kg/injection, schedule: Q01DX009 (ip), vehicle: Klucel (hydroxypropylcellulose) (HPC)",106 % of control
same,T/C,"endpoint: median survival time, dose: 25.0 mg/kg/injection, schedule: Q01DX009 (sc), vehicle: Klucel (hydroxypropylcellulose) (HPC)",105 % of control
same,T/C,"endpoint: median survival time, dose: 47.0 mg/kg/injection, schedule: Q01DX Z (sc), vehicle: methylcellulose (MC)",105 % of control
same,T/C,"endpoint: median survival time, dose: 50.0 mg/kg/injection, schedule: Q01DX009 (ip), vehicle: Klucel (hydroxypropylcellulose) (HPC)",101 % of control
same,T/C,"endpoint: median survival time, dose: 50.0 mg/kg/injection, schedule: Q01DX009 (sc), vehicle: Klucel (hydroxypropylcellulose) (HPC)",96 % of control
same,T/C,[4],96 % of control
same,T/C,[8],110 % of control
same,T/C,[5],96 % of control
same,T/C,[9],100 % of control
same,T/C,[6],103 % of control
same,T/C,[7],100 % of control
CCS(=O)(=O)Nc1cccc(Nc2c3cccc(C)c3nc3c(C)cccc23)c1OC,T/C,"endpoint: mean survival time, dose: 12.5 mg/kg/injection, schedule: Q01DX009 (sc), vehicle: Klucel (hydroxypropylcellulose) (HPC)",105 % of control
same,T/C,"endpoint: mean survival time, dose: 25.0 mg/kg/injection, schedule: Q01DX009 (sc), vehicle: Klucel (hydroxypropylcellulose) (HPC)",100 % of control
same,T/C,"endpoint: mean survival time, dose: 50.0 mg/kg/injection, schedule: Q01DX009 (sc), vehicle: Klucel (hydroxypropylcellulose) (HPC)",104 % of control
same,T/C,"endpoint: mean survival time, dose: 100.0 mg/kg/injection, schedule: Q01DX009 (sc), vehicle: Klucel (hydroxypropylcellulose) (HPC)",112 % of control
Nc1ncnc2[nH]ncc12,T/C,"endpoint: median survival time, dose: 3.0 mg/kg/injection, schedule: Q01DX Z (sc), vehicle: methylcellulose (MC)",100 % of control
same,T/C,"endpoint: median survival time, dose: 5.0 mg/kg/injection, schedule: Q01DX Z (sc), vehicle: methylcellulose (MC)",112 % of control
same,T/C,[1],112 % of control and 115 % of control
same,T/C,[2],108 % of control
same,T/C,"endpoint: median survival time, dose: 23.3 mg/kg/injection, schedule: Q01DX Z (sc), vehicle: methylcellulose (MC)",91 % of control
same,T/C,"endpoint: median survival time, dose: 38.9 mg/kg/injection, schedule: Q01DX Z (sc), vehicle: methylcellulose (MC)",120 % of control
same,T/C,"endpoint: median survival time, dose: 46.8 mg/kg/injection, schedule: Q01DX Z (sc), vehicle: methylcellulose (MC)",116 % of control
same,T/C,"endpoint: median survival time, dose: 64.8 mg/kg/injection, schedule: Q01DX Z (sc), vehicle: methylcellulose (MC)",100 % of control
same,T/C,[8],100 % of control
same,T/C,[5],100 % of control
same,T/C,[9],91 % of control
same,T/C,[6],100 % of control
same,T/C,[7],100 % of control

# Reference: PubChem BioAssay AID250 (DTP/NCI, 2004)
